# Data from patent US8293979B2, “Weed controller metabolism proteins, genes, thereof and use of the same” (Sumitomo Chemical Company, Limited, priority 2001, dated 2012).
# What was measured:
# [1] = tested on: present invention protein (A22); assay: Detection of the ability to convert compound (II) to compound (III), E. coli pKSN1558BF extract; type: in vitro ADME, Streptomyces pallidus IFO 13434T; conditions: 3 ppm of compound (II) labeled with 14C, components A, B, 10 minutes at 30° C.
# Description: (§1) Reaction solutions of 30 μl were prepared and maintained for 10 minutes at 30° C. The reaction solutions consisted of a 0.1M potassium phosphate buffer (pH7.0) containing 3 ppm of compound (II) labeled with ^14C, 2 mM of β-NADPH (hereinafter, referred to as “component A”) (Oriental Yeast Company), 2 mg/ml of a ferredoxin derived from spinach (hereinafter referred to as “component B”) (Sigma Company), 0.1 U/ml of ferredoxin reductase (hereinafter, referred to as “component C”) (Sigma Company) and 23 μl of the supernatant fraction recovered in Example 32(2). Similarly to Example 4(3), the reaction solutions after the maintenance were extracted with ethyl acetate and the extracted layers were TLC analyzed. […] A spot corresponding to compound (III) was detected from the reaction solution containing E. coli pKSN849AF extract. In contrast, such a spot was not detected from the reaction solution containing E. coli pKSN2 extract.
# (§2) Similarly to Example 32(3), reaction solutions of 30 μl were prepared and maintained for 10 minutes at 30° C. […] The reaction solutions after the maintenance were extracted with ethyl acetate and the extracted layers were TLC analyzed. […] A spot corresponding to compound (III) was detected from the reaction solution containing E. coli pKSN1558BF extract. In contrast, such a spot was not detected from the reaction solution containing E. coli pKSN2 extract.
# Ivyleaf morningglory = assay: Herbicidal activity test, soil surface treatment; type: in vivo, Ipomoea hederacea; set-up: key: 0: situations in which the condition of sprouting or vegetation at the time of examination of the plant utilized for the test was compared with and showed totally or substantially no difference with that of the untreated application; 10: situations in which the plant completely withered or the sprouting or vegetation was completely suppressed; conditions: 500 g/ha, sprayed onto the surface of the soil after seeding, investigated after 19 days in a greenhouse
# Description: Soil was packed into a round plastic pot having a diameter of 10 cm and depth of 10 cm. Barnyardgrass, Blackgrass, Ivyleaf morningglory were seeded. Five (5) parts of the test compound, 6 parts of sorpol3005X (Toho Chemical Company) and 89 parts of xylene were well mixed to produce an emulsion. A certain amount thereof was diluted with water containing 0.1% (v/v) of a sticking agent at a proportion of 1000 L for 1 hectare and was spread uniformly with a spray-gun onto the surface of the soil. After cultivating the plants for 19 days in a greenhouse, the herbicidal activity was investigated.
# In the above Tables 3 and 4, the strength of the herbicidal activity is shown stepwise as 0, 1, 2, 3, 4, 5, 6, 7, 8, 9, and 10.
# [2] = tested on: present invention protein (A14); assay: Detection of the ability to convert compound (II) to compound (III), E. coli pKSN1491AF extract; type: in vitro ADME, Streptomyces glomerochromogenes IFO 13673t; conditions: 3 ppm of compound (II) labeled with 14C, components A, B, 10 minutes at 30° C.
# Description: as §1
# as §2, with “Reaction” for “Similarly to Example 32(3), reaction”, “pKSN1491AF” for “pKSN1558BF”
# [3] = tested on: present invention protein (A20); assay: Detection of the ability to convert compound (II) to compound (III), E. coli pKSN1525F extract; type: in vitro ADME, Streptomyces lanatus IFO 12787T; conditions: 3 ppm of compound (II) labeled with 14C, components A, B, 10 minutes at 30° C.
# Description: as §1
# as §2, with “pKSN1525F” for “pKSN1558BF”
# [4] = tested on: present invention protein (A18); assay: Detection of the ability to convert compound (II) to compound (III), E. coli pKSN646BF extract; type: in vitro ADME, Streptomyces achromogenes IFO 12735; conditions: 3 ppm of compound (II) labeled with 14C, components A, B, 10 minutes at 30° C.
# Description: as §1
# as §2, with “pKSN646BF” for “pKSN1558BF”
# [5] = tested on: present invention protein (A23); assay: Detection of the ability to convert compound (II) to compound (III), E. coli pKSN1584F extract; type: in vitro ADME, Streptomyces roseorubens IFO 13682T; conditions: 3 ppm of compound (II) labeled with 14C, components A, B, 10 minutes at 30° C.
# Description: as §1
# as §2, with “pKSN1584F” for “pKSN1558BF”
# [6] = tested on: present invention protein (A2); assay: Metabolism of compounds by the present invention protein (A2), reaction solution, HPLC; type: in vitro ADME, Saccharopolyspora taberi JCM 9383t; conditions: 5 ppm of compound, components A, B, C, 20 μl supernatant fraction of Example 7(2), 30° C. for 10 minutes
# [7] = tested on: present invention protein (A22); assay: Metabolism of compounds by the present invention protein (A22), reaction solution, HPLC; type: in vitro ADME, Streptomyces pallidus IFO 13434T; conditions: 12.5 ppm of compound, components A, B, C, 20 μl supernatant fraction of Example 61(2), 30° C. for 10 minutes
Compound,spot corresponding to compound (III) labeled with 14C (TLC) [1],Herbicidal Activity Ivyleaf Morningglory (Ivyleaf morningglory),spot corresponding to compound (III) labeled with 14C (TLC) [2],spot corresponding to compound (III) labeled with 14C (TLC) [3],spot corresponding to compound (III) labeled with 14C (TLC) [4],spot corresponding to compound (III) labeled with 14C (TLC) [5],concentration of the compound detected from metabolism solution (A2) compared to control solution (A2) [6],concentration of the compound detected from metabolism solution (A22) compared to control solution (A22) [7]
C[C@@H](Oc1cc(-n2c(=O)cc(C(F)(F)F)n(C)c2=O)c(F)cc1Cl)C(=O)O [compound (II)],detected,10,detected,detected,detected,detected,–,–
Cn1c(C(F)(F)F)cc(=O)n(-c2cc(Oc3cccnc3OCC(=O)O)c(Cl)cc2F)c1=O [compound (XII)],–,–,–,–,–,–,lower,lower
Cn1c(C(F)(F)F)cc(=O)n(-c2cc(Oc3ccccc3OCC(=O)O)c(Cl)cc2F)c1=O [compound (XIII)],–,–,–,–,–,–,lower,–
